# Columns and labels:
# [1] = target: T1, Alpha-1A adrenergic receptor (Bos taurus, UniProt P18130); assay: Binding activity against alpha-1 adrenergic receptor from calf cerebral cortex, using [3H]-prazosin as the radioligand; type: tissue-based
# T1 sequence (P18130 whole entry): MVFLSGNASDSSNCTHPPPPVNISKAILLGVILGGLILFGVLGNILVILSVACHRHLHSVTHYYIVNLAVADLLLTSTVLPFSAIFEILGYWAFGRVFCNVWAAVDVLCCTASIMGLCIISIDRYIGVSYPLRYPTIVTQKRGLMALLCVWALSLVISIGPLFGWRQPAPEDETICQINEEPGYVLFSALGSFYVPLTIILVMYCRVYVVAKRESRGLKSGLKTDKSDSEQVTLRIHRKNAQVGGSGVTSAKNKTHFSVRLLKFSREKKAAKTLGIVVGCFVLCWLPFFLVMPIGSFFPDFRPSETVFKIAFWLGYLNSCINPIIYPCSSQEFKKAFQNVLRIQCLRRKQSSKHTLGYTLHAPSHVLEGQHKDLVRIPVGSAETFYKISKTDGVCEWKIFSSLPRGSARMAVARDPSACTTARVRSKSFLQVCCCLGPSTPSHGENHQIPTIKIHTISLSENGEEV
# [2] = target: T2, Alpha-2A adrenergic receptor (Bos taurus, UniProt Q28838); assay: Binding activity against alpha-2 adrenergic receptor from calf cerebral cortex, using [3H]clonidine as the radioligand; type: tissue-based
# T2 sequence (Q28838 whole entry): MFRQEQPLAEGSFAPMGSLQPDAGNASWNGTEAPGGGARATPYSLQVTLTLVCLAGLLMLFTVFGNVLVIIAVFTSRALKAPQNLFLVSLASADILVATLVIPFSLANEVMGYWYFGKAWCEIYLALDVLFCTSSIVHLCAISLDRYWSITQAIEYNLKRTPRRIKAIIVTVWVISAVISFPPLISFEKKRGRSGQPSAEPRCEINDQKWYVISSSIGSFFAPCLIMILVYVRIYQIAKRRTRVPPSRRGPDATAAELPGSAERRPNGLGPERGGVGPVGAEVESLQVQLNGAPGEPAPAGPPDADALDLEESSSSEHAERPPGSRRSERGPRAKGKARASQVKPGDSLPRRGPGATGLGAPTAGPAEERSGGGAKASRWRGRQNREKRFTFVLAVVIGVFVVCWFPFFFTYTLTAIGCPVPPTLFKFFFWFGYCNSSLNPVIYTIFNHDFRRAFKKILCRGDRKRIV
# [3] = target: T3, Adrenergic receptor alpha-2 (Rattus norvegicus) (UniProt P22086+P19328+P22909)
# [4] = target: T4, Adrenergic receptor alpha-2 (Rattus norvegicus, UniProt P22086+P19328+P22909); assay: Presynaptic antagonistic activity against alpha-2 adrenergic receptor from rat, isolated, field-stimulated vas deferens, using clonidine as the agonist; type: functional
# T4 sequence (P22086 whole entry): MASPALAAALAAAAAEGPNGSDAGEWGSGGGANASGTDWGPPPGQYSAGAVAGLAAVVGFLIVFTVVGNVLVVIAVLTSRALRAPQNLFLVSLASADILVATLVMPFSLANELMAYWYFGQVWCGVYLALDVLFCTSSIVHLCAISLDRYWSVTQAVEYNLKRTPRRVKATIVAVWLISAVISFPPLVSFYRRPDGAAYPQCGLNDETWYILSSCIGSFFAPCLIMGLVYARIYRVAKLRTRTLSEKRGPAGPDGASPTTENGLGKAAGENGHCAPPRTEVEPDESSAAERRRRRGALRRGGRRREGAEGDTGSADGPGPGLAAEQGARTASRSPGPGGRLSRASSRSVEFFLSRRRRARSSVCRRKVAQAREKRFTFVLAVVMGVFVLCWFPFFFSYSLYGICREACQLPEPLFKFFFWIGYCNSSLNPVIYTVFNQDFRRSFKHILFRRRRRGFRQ
# T4 sequence (P19328 whole entry): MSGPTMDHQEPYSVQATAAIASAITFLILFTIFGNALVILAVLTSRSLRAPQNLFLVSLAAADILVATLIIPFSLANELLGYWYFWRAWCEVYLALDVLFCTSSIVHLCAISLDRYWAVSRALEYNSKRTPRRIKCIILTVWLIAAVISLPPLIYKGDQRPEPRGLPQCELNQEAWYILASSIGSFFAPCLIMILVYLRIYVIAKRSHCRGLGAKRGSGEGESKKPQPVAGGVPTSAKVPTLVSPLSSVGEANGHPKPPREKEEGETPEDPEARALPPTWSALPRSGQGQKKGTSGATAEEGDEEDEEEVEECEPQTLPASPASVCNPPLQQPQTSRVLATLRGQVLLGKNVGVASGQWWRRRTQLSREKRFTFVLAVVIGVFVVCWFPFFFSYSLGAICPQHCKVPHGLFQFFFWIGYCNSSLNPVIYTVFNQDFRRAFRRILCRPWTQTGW
# T4 sequence (P22909 whole entry): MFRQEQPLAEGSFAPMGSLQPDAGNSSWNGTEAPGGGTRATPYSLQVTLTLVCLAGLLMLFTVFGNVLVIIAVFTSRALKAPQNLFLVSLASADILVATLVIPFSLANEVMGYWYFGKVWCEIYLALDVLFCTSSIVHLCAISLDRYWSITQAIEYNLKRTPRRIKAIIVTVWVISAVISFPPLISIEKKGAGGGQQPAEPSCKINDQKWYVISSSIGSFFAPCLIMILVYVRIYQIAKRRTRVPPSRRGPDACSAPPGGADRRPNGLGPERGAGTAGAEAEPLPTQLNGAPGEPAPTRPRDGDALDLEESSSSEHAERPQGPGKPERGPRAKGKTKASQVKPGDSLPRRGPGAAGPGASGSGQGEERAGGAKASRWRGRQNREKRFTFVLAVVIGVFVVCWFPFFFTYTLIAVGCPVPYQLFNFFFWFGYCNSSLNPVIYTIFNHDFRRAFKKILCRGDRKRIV
# [5] = target: T5, Adrenergic receptor alpha-1 (Rattus norvegicus, UniProt P15823+P23944+P43140); assay: Presynaptic antagonistic activity against alpha-1 adrenergic receptor from rat, isolated, field-stimulated vas deferens, using methoxamine as the agonist; type: functional
# T5 sequence (P15823 whole entry): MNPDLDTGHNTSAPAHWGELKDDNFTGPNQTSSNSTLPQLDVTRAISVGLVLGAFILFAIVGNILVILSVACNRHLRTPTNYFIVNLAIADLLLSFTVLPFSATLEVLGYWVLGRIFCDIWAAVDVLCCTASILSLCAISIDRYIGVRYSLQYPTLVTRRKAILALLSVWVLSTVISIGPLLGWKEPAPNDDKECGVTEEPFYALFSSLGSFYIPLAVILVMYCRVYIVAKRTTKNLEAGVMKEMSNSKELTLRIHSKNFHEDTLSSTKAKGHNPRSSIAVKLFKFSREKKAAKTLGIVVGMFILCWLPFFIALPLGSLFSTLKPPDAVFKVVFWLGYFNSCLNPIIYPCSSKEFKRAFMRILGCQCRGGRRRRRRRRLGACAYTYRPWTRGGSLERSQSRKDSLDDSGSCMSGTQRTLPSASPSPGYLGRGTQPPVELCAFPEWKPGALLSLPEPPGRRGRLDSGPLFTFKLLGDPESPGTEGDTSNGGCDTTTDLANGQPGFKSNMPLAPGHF
# T5 sequence (P23944 whole entry): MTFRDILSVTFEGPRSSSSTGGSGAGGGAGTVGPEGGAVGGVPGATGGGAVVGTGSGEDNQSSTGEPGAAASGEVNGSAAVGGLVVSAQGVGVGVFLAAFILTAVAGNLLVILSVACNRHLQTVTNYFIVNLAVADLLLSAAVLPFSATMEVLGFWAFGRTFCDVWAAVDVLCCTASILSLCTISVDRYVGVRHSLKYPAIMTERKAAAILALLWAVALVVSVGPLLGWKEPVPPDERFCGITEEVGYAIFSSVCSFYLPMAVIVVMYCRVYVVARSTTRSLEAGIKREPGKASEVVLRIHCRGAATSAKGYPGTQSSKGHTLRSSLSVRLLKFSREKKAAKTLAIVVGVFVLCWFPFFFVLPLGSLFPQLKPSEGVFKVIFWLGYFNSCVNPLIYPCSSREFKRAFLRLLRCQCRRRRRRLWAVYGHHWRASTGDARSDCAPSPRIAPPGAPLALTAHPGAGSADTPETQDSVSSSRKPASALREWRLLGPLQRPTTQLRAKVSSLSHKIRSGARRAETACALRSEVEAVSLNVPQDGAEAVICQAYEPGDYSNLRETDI
# T5 sequence (P43140 whole entry): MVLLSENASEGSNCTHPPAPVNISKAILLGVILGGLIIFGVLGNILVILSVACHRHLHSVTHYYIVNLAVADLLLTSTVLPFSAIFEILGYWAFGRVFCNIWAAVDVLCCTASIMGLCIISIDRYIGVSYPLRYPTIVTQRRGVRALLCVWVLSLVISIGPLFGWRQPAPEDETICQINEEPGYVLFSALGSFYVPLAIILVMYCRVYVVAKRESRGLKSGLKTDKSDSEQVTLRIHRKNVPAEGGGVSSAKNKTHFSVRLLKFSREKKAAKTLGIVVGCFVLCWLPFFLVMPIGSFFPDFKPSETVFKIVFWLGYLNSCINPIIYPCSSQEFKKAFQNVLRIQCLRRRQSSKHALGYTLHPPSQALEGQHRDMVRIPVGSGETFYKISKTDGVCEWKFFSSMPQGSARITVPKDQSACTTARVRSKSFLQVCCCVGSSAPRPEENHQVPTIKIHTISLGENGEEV
# [6] = target: T3, Adrenergic receptor alpha-2 (Rattus norvegicus); assay: Antagonistic activity against central alpha-2 adrenergic receptor, in anesthetized rats, by reversing the established clonidine-induced mydriasis; 0.3-1; type: functional
Compound,Ki [1],Ki [2],AD50 [3],pA2 [4],pA2 [5],AD50 [6]
O=[N+]([O-])c1cccnc1N1CCNCC1,3800 nM,26 nM,1.53 mg/kg,6.3,–,–
Fc1cccnc1N1CCNCC1,2500 nM,8.2 nM,0.23 mg/kg,6.9,5.18,–
FC(F)(F)c1cccnc1N1CCNCC1,2850 nM,97 nM,3.63 mg/kg,< 5.8,–,–
Brc1cccnc1N1CCNCC1,1480 nM,–,0.68 mg/kg,6.6,5.8,–
Clc1ccccc1N1CCNCC1,160 nM,25 nM,1.03 mg/kg,6,6.5,–
Clc1cnccc1N1CCNCC1,6800 nM,390 nM,> 3 mg/kg,< 5.8,–,–
CN1CCN(c2ncccc2Br)CC1,160 nM,–,0.74 mg/kg,7.6,6.5,–
Clc1cccnc1N1CCN(Cc2ccccc2)CC1,700 nM,120 nM,> 3 mg/kg,6.5,7,–
c1ccc(N2CCNCC2)nc1,2400 nM,–,1.28 mg/kg,6.4,5.7,–
Clc1ccc(N2CCNCC2)nc1,900 nM,1340 nM,> 3 mg/kg,< 5.8,–,–
N#Cc1cccnc1N1CCNCC1,2000 nM,14 nM,1.07 mg/kg,6.1,–,–
Ic1cccnc1N1CCNCC1,1600 nM,–,1.95 mg/kg,6.2,6,–
Clc1cnc(N2CCNCC2)c(Cl)c1,800 nM,500 nM,> 3 mg/kg,< 5.8,–,–
COC(=O)[C@@H]1[C@H]2C[C@H]3c4[nH]c5ccccc5c4CCN3C[C@@H]2CC[C@@H]1O,–,–,1.04 mg/kg,–,–,–
Nc1cccnc1N1CCNCC1,31000 nM,440 nM,> 3 mg/kg,< 5.8,–,–
CN1CCN(c2ncccc2Cl)CC1,215 nM,2.7 nM,0.56 mg/kg,7.4,6.5,–
Clc1cccnc1N1CCNCC1,1800 nM,–,0.44 mg/kg,6.9,5.7,–
COC(=O)[C@H]1[C@H]2C[C@H]3c4[nH]c5ccccc5c4CCN3C[C@H]2CC[C@@H]1O,–,–,1.1 mg/kg,–,–,–
NC(=O)c1cccnc1N1CCNCC1,62000 nM,5200 nM,> 3 mg/kg,< 5.8,–,–
Clc1cccc(N2CCNCC2)n1,375 nM,–,–,6.8,6,0.3 mg/kg
Cc1ccnc(N2CCNCC2)c1Cl,4300 nM,74 nM,14 mg/kg,5.9,–,–
CN1CCN2c3ccccc3Cc3ccccc3C2C1 (stereo unspecified),–,–,> 10 mg/kg,–,–,–
c1ccc2c(c1)OCC(C1=NCCN1)O2 (stereo unspecified) [IDAZOXAN],500 nM,1.5 nM,0.05 mg/kg,–,–,–
CN1CCN(c2ncccc2F)CC1,490 nM,5 nM,0.67 mg/kg,7.4,6.2,–

# — ChEMBL document CHEMBL1122408, “Pyridinylpiperazines, a new class of selective alpha 2-adrenoceptor antagonists” (J Med Chem, 1983)
